According to PubChem BioAssay AID2040 (NMMLSC, 2009):
Active and inactive are the calls of the source. No rule for the calls is given here.

Target: Ras-related C3 botulinum toxin substrate 1 (Homo sapiens) (UniProt P63000)
Test: analog inhibition of wildtype Rac1 nucleotide loading – biochemical, additional analogs, multiplex bead flow cytometry, SAR follow-up (AID 2040)
Conditions: Rac1 GTP binding; for Ki: measured here: Ki derived from EC50

| Compound | Ki | EC50 |
| --- | --- | --- |
| O=C1Nc2cccc(Br)c2/C1=C1/Cc2ccccc2C1=O | 1.13 µM |  |
| O=C1N=c2ccccc2=C1c1[nH]c(=S)[nH]c1O | 0.16 µM | inactive |
| O=Nc1c(-c2c(O)[nH]c3ccc(Br)cc23)[nH]c2ccccc12 |  | > 30 µM (inactive) |
| O=Nc1c(-c2c(O)[nH]c3c(Br)cccc23)[nH]c2ccccc12 |  | > 30 µM (inactive) |
| O=C1C(c2c(O)[nH]c3ccccc23)=Nc2ccccc21 |  | > 30 µM (inactive) |
| COc1cc(-c2c(C#N)c(N)n(S(=O)(=O)c3c(C(C)C)cc(C(C)C)cc3C(C)C)c2C(=O)c2ccccc2)cc(OC)c1OC | 7.04 µM |  |
| CSc1ccc(/C=C2/C(C)=C(CC(=O)O)c3cc(F)ccc32)cc1 | 5.11 µM |  |
| O=C1C(c2c(O)[nH]c3c(F)cccc23)=Nc2ccccc21 | 3.23 µM | inactive |
| O=C1N=c2ccccc2=C1c1[nH]c(=O)[nH]c1O | 0.25 µM | inactive |
| COc1ccc(S(=O)(=O)n2c(N)c(C#N)c(-c3cncc(Br)c3)c2C(=O)c2ccccc2)cc1 | 0.92 µM |  |
| O=C1C(c2c(O)[nH]c3c(Cl)cccc23)=Nc2ccccc21 |  | > 30 µM (inactive) |
| O=C1C(c2c(O)[nH]c3ccc(Br)cc23)=Nc2ccccc21 | 1.51 µM | inactive |
| O=Nc1c(-c2c(O)[nH]c3c(F)cccc23)[nH]c2ccccc12 |  | > 30 µM (inactive) |
| O=Nc1c(-c2c(O)[nH]c3c(Cl)cccc23)[nH]c2ccccc12 |  | > 30 µM (inactive) |
| O=C1C(c2c(O)[nH]c3c(Br)cccc23)=Nc2ccccc21 |  | > 30 µM (inactive) |
| O=Nc1c(-c2c(O)[nH]c3ccccc23)[nH]c2ccccc12 |  | > 30 µM (inactive) |
